According to ChEMBL document CHEMBL5113442, “Discovery of agonist-antagonist pairs for the modulation of Ca [2]+ and voltage-gated K+ channels of large conductance that contain beta1 subunits” (Bioorg Med Chem, 2022):
pEC50: −log10 of the molar value. Active and inactive are the calls of the source. No cut-off for these calls is given here.

Tests used:
Assay type in all cases: cell-based
CHO [1] = assay: Agonist activity at rat BK calcium channel alphabeta1 expressed in CHO cells assessed as fold increase in current amplitude at 0.0001 to 33.3 uM by automated whole cell patch clamp analysis; details: filed as agonist, dose 0.0001-33.3 µM
[2] = Agonist activity at rat BK calcium channel alphabeta1 expressed in CHO cells assessed as increase in current amplitude by automated whole cell patch clamp analysis
CHO [3] = assay: Agonist activity at rat BK calcium channel alphabeta1 expressed in CHO cells assessed as maximal current amplitude by automated whole cell patch clamp analysis; details: filed as agonist
CHO [4] = assay: Antagonist activity at rat BK calcium channel alphabeta1 expressed in CHO cells assessed as fold change in current amplitude at 1 uM in presence of compound 1 by automated whole cell patch clamp analysis; details: filed as antagonist
CHO [5] = assay: Antagonist activity at rat BK calcium channel alphabeta1 expressed in CHO cells assessed as decrease in current amplitude at 0.1 to 1 uM in presence of compound 1 by automated whole cell patch clamp analysis; details: filed as antagonist, dose 0.1-1 µM
CHO [6] = assay: Antagonist activity at rat BK calcium channel alphabeta1 expressed in CHO cells assessed as fold change in current amplitude at 3 uM in presence of compound 1 by automated whole cell patch clamp analysis; details: filed as antagonist

Row | Compound | fold change (FC) (CHO [1]) | ECmax (CHO [3]) | further results
1 | Cc1ccc(C(=O)NN2C(=O)/C(=C\c3ccc(OC(=O)c4cccc([N+](=O)[O-])c4)cc3)SC2=S)cc1 | 2.47 | – | –
2 | C/C(=C/C(=O)C[C@H](C)C(=O)O)[C@@H]1CC(=O)[C@@]2(C)C3=C(C(=O)C[C@]12C)[C@@]1(C)CCC(=O)C(C)(C)[C@@H]1C[C@@H]3O | – | 0.78 µM | pEC50 [2]: 7.70
3 | COc1cc(/C=C2/C(=O)NC(=O)N(c3ccccc3)C2=O)cc(Br)c1OCc1ccc([N+](=O)[O-])cc1 | 4.07 | 0.35 µM | –
4 | CCOC(=O)c1c(NC(=O)[C@H](C)Sc2nnc(CNC(=O)c3ccc(C)c([N+](=O)[O-])c3)n2CCc2ccccc2)sc2c1CCC2 | 1.84 | 0.14 µM | –
5 | COc1ccc(C(=O)NC(=S)Nc2ccc(O)c(-c3nc4ccc(C)cc4o3)c2)cc1[N+](=O)[O-] | 2.47 | 0.21 µM | –
6 | O=C(Cc1ccc([N+](=O)[O-])cc1)NC[C@H](c1ccccc1Cl)c1c[nH]c2ccccc12 | 2.51 | – | –
7 | Cc1n[nH]c(C)c1CCc1nc2c3ccccc3nc(SCc3ccc([N+](=O)[O-])cc3)n2n1 | 1.23 | 0.25 µM | fold change (FC) (CHO [4]): 2.2; Activity (CHO [5]): Active; fold change (FC) (CHO [6]): 2
8 | O=C(Nc1ccccc1)c1nnc(/C(Cl)=C\c2cccc([N+](=O)[O-])c2)s1 | 4.05 | 0.44 µM | –
9 | O=C1NC(=O)N(c2ccc(F)cc2)C(=O)/C1=C/c1cc(Br)ccc1OCc1cccc([N+](=O)[O-])c1 | – | 1.05 µM | pEC50 [2]: 7.70
10 | COc1ccc([N+](=O)[O-])cc1/N=c1\ssc2c1-c1cc(C)c(C)cc1NC2(C)C | 3.86 | – | –
11 | CC[C@@H](C)NS(=O)(=O)c1cc([N+](=O)[O-])ccc1Oc1c(C)c(C(=O)NC[C@@H]2CCCO2)nn1-c1cccc(C)c1C | – | 0.42 µM | pEC50 [2]: 8.70
12 | C/C(=N\Nc1ccc([N+](=O)[O-])cc1S(=O)(=O)Nc1ccccc1Cl)c1ccc2ccccc2c1O | 4.05 | 0.38 µM | –
13 | O=C(Nc1ccc(F)cc1)c1nnc(/C(Cl)=C\c2cccc([N+](=O)[O-])c2)s1 | – | 0.72 µM | pEC50 [2]: 8.30
14 | COc1ccc(NC(=O)/C(=C\c2cccc([N+](=O)[O-])c2)NC(=O)c2ccc(F)cc2Cl)cc1OC | 1.94 | 0.15 µM | –
15 | O=C(NCc1ccc(F)cc1)c1nnc(/C(Cl)=C\c2cccc([N+](=O)[O-])c2)s1 | 1.73 | – | –
